From article PMC9572521, “Synthesis, Docking Studies and Pharmacological Evaluation of Serotoninergic Ligands Containing a 5-Norbornene-2-Carboxamide Nucleus” (Molecules, 2022)
Where two headings read alike, the source gives them in different places.

Columns and labels:
5-HT2A receptor = 5-HT2A receptor (Rattus norvegicus, UniProt P14842); assay: 5-HT2A competition binding assay ([3H]ketanserin, frontal cortex homogenates); conditions: read-out: 5-HT2A Ki (95% CI)
5-HT1A receptor = target: T1, 5-HT1A receptor (Rattus norvegicus, UniProt P19327); assay: Functional 5-HT1A receptor [35S]GTPγS assay (agonist mode); format: biochemical; conditions: [35S]GTPγS; for agonist activity at the 5-HT1A receptor: result in words;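 as to all read-outs here: male Sprague-Dawley rat hippocampal membranes incubated 90 min at 37 °C, bound label counted by scintillation after filtration, non-specific binding defined with 100 µM unlabeled GTPγS, one-site curve fit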
T1 construct: 15 μg/mL of hippocampus homogenate was incubated in triplicate with 0.8 nM; from tissue; host or cells: rat hippocampus homogenate
T1 sequence (P19327 1-422): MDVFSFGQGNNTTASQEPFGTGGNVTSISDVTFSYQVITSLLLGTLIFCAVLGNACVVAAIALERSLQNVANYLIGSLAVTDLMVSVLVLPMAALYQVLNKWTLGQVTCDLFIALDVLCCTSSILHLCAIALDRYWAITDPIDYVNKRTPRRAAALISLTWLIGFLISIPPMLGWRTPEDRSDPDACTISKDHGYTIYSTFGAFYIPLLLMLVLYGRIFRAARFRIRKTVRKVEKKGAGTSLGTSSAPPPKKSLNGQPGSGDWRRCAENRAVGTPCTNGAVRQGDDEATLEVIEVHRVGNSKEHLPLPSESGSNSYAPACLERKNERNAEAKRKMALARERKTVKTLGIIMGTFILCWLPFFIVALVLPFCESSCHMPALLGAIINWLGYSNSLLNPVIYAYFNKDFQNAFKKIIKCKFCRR

human 5-HT2C receptor = target: T2, human 5-HT2C receptor (Homo sapiens, UniProt P28335); assay: 5-HT2C competition binding assay ([3H]mesulergine, transfected cell membranes); conditions: [3H]mesulergine, human 5-HT2C membranes
T2 sequence (P28335 33-458): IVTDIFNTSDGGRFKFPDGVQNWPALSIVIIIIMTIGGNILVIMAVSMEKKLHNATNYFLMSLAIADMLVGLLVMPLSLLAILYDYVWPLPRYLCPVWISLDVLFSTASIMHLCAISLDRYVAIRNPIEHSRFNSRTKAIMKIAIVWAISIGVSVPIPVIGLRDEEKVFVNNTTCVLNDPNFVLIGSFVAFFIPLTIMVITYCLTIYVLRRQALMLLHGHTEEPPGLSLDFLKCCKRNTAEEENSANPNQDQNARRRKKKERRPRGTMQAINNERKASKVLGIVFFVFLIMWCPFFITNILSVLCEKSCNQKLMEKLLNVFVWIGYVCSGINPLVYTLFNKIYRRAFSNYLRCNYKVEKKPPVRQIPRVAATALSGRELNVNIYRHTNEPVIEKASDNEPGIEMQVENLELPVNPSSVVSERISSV

[1] = tested on: 5-HT2A receptors (5-HT-induced contractions in the rat ileum); assay: 5-HT-evoked contractions of isolated rat ileum; conditions: for Emax, maximal inhibitory effect on 5-HT-induced contractions in the rat ileum: 5-HT 10^−5 M, compounds 10^−8–10^−5 M
D2 receptor = target: T3, D2 receptor (Rattus norvegicus, UniProt P61169); assay: Functional D2 receptor [35S]GTPγS assay (antagonist mode vs dopamine; basal for agonism); format: biochemical; conditions: against 40 µM dopamine, rat striatal homogenate;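 also: [35S]GTPγS binding counted by scintillation after 60 min at 30 °C, nonspecific binding defined with 100 µM unlabeled GTPγS, inhibition curves fitted by one-site nonlinear regression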
T3 construct: 15μg/mL of striatal homogenate was incubated in triplicate; from tissue; host or cells: rat striatum homogenate

mice [2] = assay: Elevated plus-maze test (EPM); format: in vivo, mouse; conditions: 5 mg/kg i.p., 60 min before the test
Description: The experiments were carried out, in the Experimental Medicine Center of Medical University of Lublin, on six-week-old naive male Swiss mice, weighing 24–30 g. The mice were housed in cages, five individuals per cage in an environmentally controlled rooms (ambient temperature 22 ± 1 °C; relative humidity 50–60%; 12 h light/dark cycle, lights on at 8:00). Standard laboratory food(LSM-Agropol-Motycz, Lublin, Poland) and filtered water were available ad libitum. All the experimental procedures were carried out, according to the National Institute of Health Guidelines for the Care and Use of Laboratory Animals and to the European Community Council Directive for the Care and Use of Laboratory Animals of 22 September 2010 (2010/63/EU) and approved by the Local Ethics Committee for Animal Experimentation in Lublin. The investigated compounds (Norbo-4, Norbo-8, Norbo-10, Norbo-14, Norbo-18 and Norbo-20) in all tests were administered intraperitoneally (i.p.), dissolved in dimethyl sulfoxide (DMSO, final concentration of 0.1%) and then diluted by aqueous solution of 0.5% methylcellulose (tylose) and injected 60 min before the tests. […] All compounds were given in a volume of 10 mL/kg to mice. The control animals received an equivalent volume of the solvent at the respective time before the tests. All the experiments were conducted in the light phase between 09.00 a.m. and 14.00 p.m. The experiments were performed by an observer unaware of the treatment administered. The EPM studies were carried out on mice according to the method of Lister. The EPM apparatus was made of plexiglass and consisted of two open (30 × 5 cm) and two enclosed (30 × 5 × 15 cm) arms. The arms extended from a central platform of 5 × 5 cm. The apparatus was mounted on a plexiglass base, raising it 38.5 cm above the floor, and illuminated by a red light. The test consisted of placing a mouse in the center of the apparatus (facing an open arm) and allowing it to freely explore. The number of entries into the open arms and the time spent in these arms were scored for a 5 min test period. An entry was defined as placing all four paws within the boundaries of the arm. The following measures were obtained from the test: the total number of arm entries; the percentage of arm entries into the open arms; and the time spent in the open arms expressed as a percentage of the time spent in both the open and closed arms. Anxiolytic activity was indicated by increases in the time spent in open arms and in the number of open arm entries. The total number of entries into either type of arm was used additionally as a measure of overall motor activity.

mice [3] = assay: Forced swim test (FST, Porsolt's test); format: in vivo, mouse; conditions: 15 mg/kg i.p., 60 min before the test
Description: The experiments were carried out, in the Experimental Medicine Center of Medical University of Lublin, on six-week-old naive male Swiss mice, weighing 24–30 g. The mice were housed in cages, five individuals per cage in an environmentally controlled rooms (ambient temperature 22 ± 1 °C; relative humidity 50–60%; 12 h light/dark cycle, lights on at 8:00). Standard laboratory food(LSM-Agropol-Motycz, Lublin, Poland) and filtered water were available ad libitum. All the experimental procedures were carried out, according to the National Institute of Health Guidelines for the Care and Use of Laboratory Animals and to the European Community Council Directive for the Care and Use of Laboratory Animals of 22 September 2010 (2010/63/EU) and approved by the Local Ethics Committee for Animal Experimentation in Lublin. The investigated compounds (Norbo-4, Norbo-8, Norbo-10, Norbo-14, Norbo-18 and Norbo-20) in all tests were administered intraperitoneally (i.p.), dissolved in dimethyl sulfoxide (DMSO, final concentration of 0.1%) and then diluted by aqueous solution of 0.5% methylcellulose (tylose) and injected 60 min before the tests. […] All compounds were given in a volume of 10 mL/kg to mice. The control animals received an equivalent volume of the solvent at the respective time before the tests. All the experiments were conducted in the light phase between 09.00 a.m. and 14.00 p.m. The experiments were performed by an observer unaware of the treatment administered. The experiment was carried out according to the method of Porsolt et al.. Mice were individually placed in a glass cylinder (25 cm high; 10 cm in diameter) containing water maintained at 23–25 °C, and were left there for 6 min. The total duration of immobility was recorded during the last 4 min of a 6-min test session. A mouse was regarded as immobile when it remained floating on the water, making only small movements to keep its head above the water.

[4] = rat hippocampus homogenate, ± SEM, read-out: 5-HT1A Receptor G-Protein Stimulation pEC50 (converted)
[5] = read-out: D2 receptor antagonistic activity IC50 (95% CI)
[6] = read-out: D2 receptor antagonistic activity pIC50 (M ± SEM) (converted)
[7] = rat hippocampus homogenate, read-out: 5-HT1A Receptor G-Protein Stimulation EC50 (95% CI)
[8] = rat hippocampus homogenate, ± SEM

Chain of 5-HT2A receptor (P14842 whole entry): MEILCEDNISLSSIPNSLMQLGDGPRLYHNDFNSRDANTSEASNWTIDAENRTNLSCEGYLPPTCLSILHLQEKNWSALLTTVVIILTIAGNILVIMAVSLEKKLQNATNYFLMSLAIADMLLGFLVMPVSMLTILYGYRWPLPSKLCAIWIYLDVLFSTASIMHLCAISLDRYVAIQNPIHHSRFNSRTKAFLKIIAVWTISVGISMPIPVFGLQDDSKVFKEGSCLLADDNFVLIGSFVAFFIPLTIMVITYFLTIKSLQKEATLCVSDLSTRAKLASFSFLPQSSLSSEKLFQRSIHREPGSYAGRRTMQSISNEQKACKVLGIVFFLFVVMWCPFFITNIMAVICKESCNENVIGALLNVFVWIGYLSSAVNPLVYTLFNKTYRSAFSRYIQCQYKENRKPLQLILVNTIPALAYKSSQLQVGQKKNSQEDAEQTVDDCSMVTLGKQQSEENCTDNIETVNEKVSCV
T3 sequence (P61169 whole entry): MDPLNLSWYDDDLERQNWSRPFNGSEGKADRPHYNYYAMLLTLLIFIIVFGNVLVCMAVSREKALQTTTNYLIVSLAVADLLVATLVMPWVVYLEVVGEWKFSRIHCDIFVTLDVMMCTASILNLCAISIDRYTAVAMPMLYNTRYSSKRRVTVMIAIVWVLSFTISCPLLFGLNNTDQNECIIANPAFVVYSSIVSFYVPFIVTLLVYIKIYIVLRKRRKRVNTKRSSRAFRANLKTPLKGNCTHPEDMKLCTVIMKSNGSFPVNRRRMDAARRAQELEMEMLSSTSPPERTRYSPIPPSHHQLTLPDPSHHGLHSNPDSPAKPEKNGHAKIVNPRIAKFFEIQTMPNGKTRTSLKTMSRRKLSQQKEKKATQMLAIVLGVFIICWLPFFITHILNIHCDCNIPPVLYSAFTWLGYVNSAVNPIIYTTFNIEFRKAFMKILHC

Row | Structure (SMILES) | Ki (5-HT2A receptor) | 5-HT1A Receptor G-Protein Stimulation Emax (%) ± SEM (5-HT1A receptor; rat hippocampus homogenate) | EC50 (5-HT1A receptor; [4]) | Ki (human 5-HT2C receptor; read-out: 5-HT2C Ki (95% CI)) | Emax, maximal inhibitory effect on 5-HT-induced contractions in the rat ileum [1] | IC50 (D2 receptor; [5]) | also measured
1 | COc1ccccc1N1CCN(CCCNC(=O)C2CC3C=CC2C3)CC1 (single isomer, unassigned) [Norbo-5, Exo-N-(3-(4-(2-methoxyphenyl)piperazin-1-yl)propyl)bicyclo[2.2.1]hept-5-ene-2-carboxamide] | 45.7 nM | 140 ± 25.2 ^&& % | 10000 nM | 1820 nM | 15.42% | 33.4 µM | IC50 (D2 receptor; [6]): 33.9 µM
2 | O=C(c1ccc(F)cc1)C1CCN(CCn2c(=O)[nH]c3ccccc3c2=O)CC1 [Ketanserin, reference compound] |  |  |  |  |  |  | effect on contractions induced by 5-HT ([1]; preliminary experiments, 0.1 µM): depressed the contractions induced by 5-HT
3 | O=C(NCCCN1CCN(c2ccccc2F)CC1)C1CC2C=CC1C2 (stereo not drawn) [Norbo-16, endo.-N-(3-(4-(2-fluorophenyl)piperazin-1-yl)propyl)bicyclo[2.2.1]hept-5-ene-2-carboxamide] | 73.3 nM | 182 ± 5.5 **^,# % |  | 1540 nM | 23.47% | 41.5 µM | EC50 (5-HT1A receptor; [7]): 939 nM
4 | O=C(NCCCN1CCN(c2ccc(F)cc2)CC1)C1CC2C=CC1C2 (stereo not drawn) [Norbo-17, Exo-N-(3-(4-(4-fluorophenyl)piperazin-1-yl)propyl)bicyclo[2.2.1]hept-5-ene-2-carboxamide] | 22.7 nM | 122 ± 2.0 ^&&& % | 631 nM | 2360 nM | 32.50% | 59.5 µM | EC50 (5-HT1A receptor; [7]): 553 nM; Ki (human 5-HT2C receptor; ± SEM, read-out: 5-HT2C pKi (converted)): 2400 nM; IC50 (D2 receptor; [6]): 60.3 µM
5 | O=C(NCCCN1CCN(c2cccc(C(F)(F)F)c2)CC1)C1CC2C=CC1C2 (stereo not drawn) [Norbo-19, Exo-N-(3-(4-(3-(trifluoromethyl)phenyl)piperazin-1-yl)propyl)bicyclo[2.2.1]hept-5-ene-2-carboxamide] | 42.6 nM |  | 316 nM | 167 nM | 39.00% | 144 µM | Emax (5-HT1A receptor; rat hippocampus homogenate, read-out: 5-HT1A Receptor G-Protein Stimulation Emax (%) ± SEM): 162 ± 2.1%
6 | O=C(NCCCN1CCN(c2cccc(C(F)(F)F)c2)CC1)C1CC2C=CC1C2 (stereo not drawn) [Norbo-20, endo-N-(3-(4-(3-(trifluoromethyl)phenyl)piperazin-1-yl)propyl)bicyclo[2.2.1]hept-5-ene-2-carboxamide] | 22.9 nM | 167 ± 1.4 % | 200 nM | 1950 nM | 21.79% | 52.7 µM | IC50 (D2 receptor; [6]): 56.2 µM
7 | O=C(NCCCN1CCN(C(=O)c2ccco2)CC1)C1CC2C=CC1C2 (stereo not drawn) [Norbo-27, Exo-N-(3-(4-(furan-2-carbonyl)piperazin-1-yl)propyl)bicyclo[2.2.1]hept-5-ene-2-carboxamide] | 1130 nM | no activity |  | 1780 nM |  | 66.6 µM | 5-HT1A Receptor G-Protein Stimulation EC50 (95% CI, nM) (5-HT1A receptor; rat hippocampus homogenate): no activity; 5-HT1A Receptor G-Protein Stimulation pEC50 (5-HT1A receptor; [8]): no activity; agonist activity at the 5-HT1A receptor (5-HT1A receptor): no agonist activity
8 | O=C(NCCCN1CCN(C(=O)c2ccco2)CC1)C1CC2C=CC1C2 (stereo not drawn) [Norbo-28, endo-N-(3-(4-(furan-2-carbonyl)piperazin-1-yl)propyl)bicyclo[2.2.1]hept-5-ene-2-carboxamide] | 1070 nM |  |  | 3930 nM |  |  | 5-HT1A Receptor G-Protein Stimulation pEC50 (5-HT1A receptor; [8]): no activity; agonist activity at the 5-HT1A receptor (5-HT1A receptor): no agonist activity; D2 receptor antagonistic activity IC50 (95% CI, µM) (D2 receptor): no activity; D2 receptor antagonistic activity pIC50 (M ± SEM) (D2 receptor): no activity
9 | O=C1CC2(CCCC2)CC(=O)N1CCCCN1CCN(c2ncccn2)CC1 [buspirone, reference compound] |  |  |  |  |  |  | percentage of the open arm entries (EPM) (mice [2]): significant increase; percentage of time spent in open arms (EPM) (mice [2]): significant increase; percentage of the open arm entries (EPM) (mice [2]; listed as Buspirone): increased the percentage of entries into the open arms; percentage of time spent in open arms (EPM) (mice [2]; listed as Buspirone): prolonged the time
10 | CN[C@H]1CC[C@@H](c2ccc(Cl)c(Cl)c2)c2ccccc21 [sertraline, reference compound] |  |  |  |  |  |  | immobility time in FST (mice [3]): significant reduction in the immobility time; immobility time in FST (mice [3]; listed as Sertraline): significantly shortened the immobility time
11 | NC1=N[C@H](O)[C@H]2[C@H]3O[C@]4(O)O[C@@H]([C@@H](O)[C@@]2(N1)[C@@H]4O)[C@]3(O)CO [tetrodotoxin, reference compound] |  |  |  |  |  |  | effect on contractions induced by 5-HT [1]: did not affect the contractions by 5-HT
